How the values were obtained:
human PD-L1 = human PD-L1 (Homo sapiens (Human), UniProt Q9NZQ7); assay: T cell activation luciferase reporter cell culture system (T Cell Activation Assay); type: cell-based; details: luciferase reporter assay; PD-L1 aAPC/CHO-K1 cells with PD-1 effector Jurkat T cells
[1] = target: PD-L1 His protein / PD-1 Fc protein (Homo sapiens (Human), UniProt Q9NZQ7); assay: HTRF Assay (PD-1/PD-L1 interaction); type: binding; details: PD-L1 His 6 nM, PD-1 Fc 6 nM
PD-L1 His protein / PD-1 Fc protein, sequence (Q9NZQ7 19-238): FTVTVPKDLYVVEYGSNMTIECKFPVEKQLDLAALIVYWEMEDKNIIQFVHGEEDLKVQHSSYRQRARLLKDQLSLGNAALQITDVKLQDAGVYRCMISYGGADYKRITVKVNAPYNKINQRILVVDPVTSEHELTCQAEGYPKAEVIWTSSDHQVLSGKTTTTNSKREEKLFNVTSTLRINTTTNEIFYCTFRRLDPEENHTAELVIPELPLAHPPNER

human PD-L1, sequence (Q9NZQ7 19-290): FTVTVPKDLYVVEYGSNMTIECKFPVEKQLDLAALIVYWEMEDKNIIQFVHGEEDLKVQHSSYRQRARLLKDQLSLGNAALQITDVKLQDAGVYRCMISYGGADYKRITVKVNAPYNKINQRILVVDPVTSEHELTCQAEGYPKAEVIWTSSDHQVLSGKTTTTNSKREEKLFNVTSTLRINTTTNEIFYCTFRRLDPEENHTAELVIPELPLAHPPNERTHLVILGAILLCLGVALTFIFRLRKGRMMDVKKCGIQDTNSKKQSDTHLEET

| Compound | EC50 (human PD-L1) | IC50 [1] |
| --- | --- | --- |
| COc1nc(-c2ccnc(-c3cccc4c3CC[C@@H]4Oc3nc(OC)c(CNC4(C(=O)O)CC4)cc3C(F)(F)F)c2Cl)ccc1CNC[C@@H]1CCC(=O)N1 [Compound 129, 1-(((6-(((S)-4-(3′-chloro-6-methoxy-5-(((((S)-5-oxopyrrolidin-2-yl)methyl)amino)methyl)-[2,4′-bipyridin]-2′-yl)-2,3-dihydro-1H-inden-1-yl)oxy)-2-methoxy-5-(trifluoromethyl)pyridin-3-yl)methyl)amino)cyclopropane-1-carboxylic acid] | 16.4 nM | 0.305 nM |
| COc1cc(-c2nccc(-c3cccc(-c4ccc(CNC[C@@H]5CCC(=O)N5)c(OC)n4)c3Cl)c2Cl)ccc1CN[C@@H](C)C(=O)O [Compound 130, (4-(3-chloro-4-(2-chloro-3-(6-methoxy-5-(((((S)-5-oxopyrrolidin-2-yl)methyl)amino)methyl)pyridin-2-yl)phenyl)pyridin-2-yl)-2-methoxybenzyl)-L-alanine] | 158 nM | 0.209 nM |
| COc1cc(-c2nccc(-c3cccc(-c4cc(F)c(CNC[C@@H]5CCC(=O)N5)c(OC)n4)c3Cl)c2Cl)cc2c1CN(C[C@@H](C)O)CC2 [Compound 131, (S)-5-((((6-(2-chloro-3-(3-chloro-2-(2-((R)-2-hydroxypropyl)-8-methoxy-1,2,3,4-tetrahydroisoquinolin-6-yl)pyridin-4-yl)phenyl)-4-fluoro-2-methoxypyridin-3-yl)methyl)amino)methyl)pyrrolidin-2-one] | 35.4 nM | 0.662 nM |
| COc1cc(-c2nccc(-c3cccc(-c4cc(F)c(CNC[C@@H]5CCC(=O)N5)c(OC)n4)c3Cl)c2Cl)cc2c1CN(CCO)CC2 [Compound 132, (S)-5-((((6-(2-chloro-3-(3-chloro-2-(2-(2-hydroxyethyl)-8-methoxy-1,2,3,4-tetrahydroisoquinolin-6-yl)pyridin-4-yl)phenyl)-4-fluoro-2-methoxypyridin-3-yl)methyl)amino)methyl)pyrrolidin-2-one] | 51.2 nM | 0.408 nM |
| COc1cc(-c2nccc(-c3cccc(-c4ccc(CNC[C@@H]5CCC(=O)N5)c(OC)n4)c3Cl)c2Cl)ccc1CNC1(C(=O)OC(C)C)CC1 [Compound 135, isopropyl (S)-1-((4-(3-chloro-4-(2-chloro-3-(6-methoxy-5-((((5-oxopyrrolidin-2-yl)methyl)amino)methyl)pyridin-2-yl)phenyl)pyridin-2-yl)-2-methoxybenzyl)amino)cyclopropane-1-carboxylate] | ≥ 10000 nM | 31.2 nM |
| CNCc1ccc(-c2nccc(-c3cccc(-c4ccc(CNC)c(OC)n4)c3Cl)c2Cl)cc1OC [Compound 136, 1-(6-(2-chloro-3-(3-chloro-2-(3-methoxy-4-((methylamino)methyl)phenyl)pyridin-4-yl)phenyl)-2methoxypyridin-3-yl)-N-methylmethanamine] | 16.3 nM | 0.708 nM |
| COc1nc(-c2cccc(-c3ccnc(-c4ccc5c6c(n(C)c5c4)CCNC6)c3Cl)c2Cl)ccc1CNC[C@@H]1CCC(=O)N1 [Compound 141, (S)-5-((((6-(2-chloro-3-(3-chloro-2-(5-methyl-2,3,4,5-tetrahydro-1H-pyrido[4,3-b]indol-7-yl)pyridin-4-yl)phenyl)-2-methoxypyridin-3-yl)methyl)amino)methyl)pyrrolidin-2-one] | ≥ 10000 nM | 0.826 nM |
| COc1nc(-c2cccc(-c3ccnc(-c4ccc5c(c4)CN(CCNC[C@@H]4CCC(=O)N4)C5=O)c3Cl)c2Cl)ccc1CNC[C@H](C)O [Compound 142, 5-(3-chloro-4-(2-chloro-3-(5-((((S)-2-hydroxypropyl)amino)methyl)-6-methoxypyridin-2-yl)phenyl)pyridin-2-yl)-2-(2-((((S)-5-oxopyrrolidin-2-yl)methyl)amino)ethyl)isoindolin-1-one] | 3380 nM | 6.66 nM |
| COc1nc(-c2cccc(-c3ccnc(-c4ccc5c(c4)CN(CCNC[C@@H]4CCC(=O)N4)C5=O)c3Cl)c2Cl)ccc1CNC1CCN(C(C)=O)CC1 [Compound 143, (S)-5-(4-(3-(5-(((1-acetylpiperidin-4-yl)amino)methyl)-6-methoxypyridin-2-yl)-2-chlorophenyl)-3-chloropyridin-2-yl)-2-(2-(((5-oxopyrrolidin-2-yl)methyl)amino)ethyl)isoindolin-1-one] | 5440 nM | 3.94 nM |
| COc1nc(-c2cccc(-c3ccnc(-c4ccc5c(c4)CN(CCNC[C@@H]4CCC(=O)N4)C5=O)c3Cl)c2Cl)ccc1CN1CC2(C1)CN(C(C)=O)C2 [Compound 144, (S)-5-(4-(3-(5-((6-acetyl-2,6-diazaspiro[3.3]heptan-2-yl)methyl)-6-methoxypyridin-2-yl)-2-chlorophenyl)-3-chloropyridin-2-yl)-2-(2-(((5-oxopyrrolidin-2-yl)methyl)amino)ethyl)isoindolin-1-one] | ≥ 10000 nM | 2.68 nM |
| COc1cc(-c2nccc(-c3cccc(-c4ccc(CNC[C@@H]5CCC(=O)N5)c(OC)n4)c3Cl)c2Cl)cc(F)c1CN1CC2(CNC(=O)C2)C1 [Compound 145, (S)-2-(4-(3-chloro-4-(2-chloro-3-(6-methoxy-5-((((5-oxopyrrolidin-2-yl)methyl)amino)methyl)pyridin-2-yl)phenyl)pyridin-2-yl)-2-fluoro-6-methoxybenzyl)-2,6-diazaspiro[3.4]octan-7-one] | 17.7 nM | 2.02 nM |
| COc1cc(-c2nccc(-c3cccc(-c4ccc(CNC[C@@H]5CCC(=O)N5)c(OC)n4)c3Cl)c2Cl)cc(F)c1CN1CC2(CC(O)C2)C1 [Compound 146, (S)-5-((((6-(2-chloro-3-(3-chloro-2-(3-fluoro-4-((6-hydroxy-2-azaspiro[3.3]heptan-2-yl)methyl)-5-methoxyphenyl)pyridin-4-yl)phenyl)-2-methoxypyridin-3-yl)methyl)amino)methyl)pyrrolidin-2-one] | 61.1 nM | 0.77 nM |
| COc1cc(-c2nccc(-c3cccc(-c4ccc(CNC[C@@H]5CCC(=O)N5)c(OC)n4)c3Cl)c2Cl)cc(F)c1CNCCCF [Compound 147, (S)-5-((((6-(2-chloro-3-(3-chloro-2-(3-fluoro-4-(((3-fluoropropyl)amino)methyl)-5-methoxyphenyl)pyridin-4-yl)phenyl)-2-methoxypyridin-3-yl)methyl)amino)methyl)pyrrolidin-2-one] | 42.7 nM | 1.96 nM |
| COc1cc(-c2nccc(-c3cccc(-c4ccc(CNC[C@@H]5CCC(=O)N5)c(OC)n4)c3Cl)c2Cl)cc(F)c1CNC1CCN(C(C)=O)CC1 [Compound 148, (S)-5-((((6-(3-(2-(4-(((1-acetylpiperidin-4-yl)amino)methyl)-3-fluoro-5-methoxyphenyl)-3-chloropyridin-4-yl)-2-chlorophenyl)-2-methoxypyridin-3-yl)methyl)amino)methyl)pyrrolidin-2-one] | 19.5 nM | 1.11 nM |
| COC(=O)C1(NCc2cc(C(F)(F)F)c(N[C@H]3CCc4c(-c5nccc(-c6ccc(CNC[C@@H]7CCC(=O)N7)c(OC)n6)c5Cl)cccc43)nc2OC)CC1 [Compound 149, methyl 1-(((6-(((S)-4-(3′-chloro-6-methoxy-5-(((((S)-5-oxopyrrolidin-2-yl)methyl)amino)methyl)-[2,4′-bipyridin]-2′-yl)-2,3-dihydro-1H-inden-1-yl)amino)-2-methoxy-5-(trifluoromethyl)pyridin-3-yl)methyl)amino)cyclopropane-1-carboxy late] | ≥ 10000 nM | 12.7 nM |
| COc1nc(-c2cccc(-c3ccnc(-c4ccc5nc([C@H]6N[C@@H]7CC[C@H]6C7)[nH]c5c4)c3Cl)c2Cl)ccc1CNC[C@@H]1CCC(=O)N1 [Compound 152, (S)-5-((((6-(3-(2-(2-((1R,3S,4S)-2-azabicyclo[2.2.1]heptan-3-yl)-1H-benzo[d]imidazol-6-yl)-3-chloropyridin-4-yl)-2-chlorophenyl)-2-methoxypyridin-3-yl)methyl)amino)methyl)pyrrolidin-2-one] | ≥ 10000 nM | 2.57 nM |
| COc1cc(CNC[C@@H]2CCC(=O)N2)cc(-c2nccc(-c3cccc(-c4ccc(CNC[C@@H]5CCC(=O)N5)c(OC)n4)c3Cl)c2Cl)c1 [Compound 153, (S)-5-((((6-(2-chloro-3-(3-chloro-2-(3-methoxy-5-(((((S)-5-oxopyrrolidin-2-yl)methyl)amino)methyl)phenyl)pyridin-4-yl)phenyl)-2-methoxypyridin-3-yl)methyl)amino)methyl)pyrrolidin-2-one] | 782 nM | 5.14 nM |
| COc1cc(CNC2CCN(C(C)=O)CC2)cc(-c2nccc(-c3cccc(-c4ccc(CNC5CCN(C(C)=O)CC5)c(OC)n4)c3Cl)c2Cl)c1 [Compound 154, 1-(4-(((6-(3-(2-(3-(((1-acetylpiperidin-4-yl)amino)methyl)-5-methoxyphenyl)-3-chloropyridin-4-yl)-2-chlorophenyl)-2-methoxypyridin-3-yl)methyl)amino)piperidin-1-yl)ethan-1-one] | ≥ 10000 nM | 8.73 nM |
| CNCc1cc(OC)cc(-c2nccc(-c3cccc(-c4ccc(CNC)c(OC)n4)c3Cl)c2Cl)c1 [Compound 155, 1-(6-(2-chloro-3-(3-chloro-2-(3-methoxy-5-((methylamino)methyl)phenyl)pyridin-4-yl)phenyl)-2-methoxypyridin-3-yl)-N-methylmethanamine] | ≥ 10000 nM | 6.82 nM |
| COc1cc(CNCCO)cc(-c2nccc(-c3cccc(-c4ccc(CNCCO)c(OC)n4)c3Cl)c2Cl)c1 [Compound 156, 2-(((6-(2-chloro-3-(3-chloro-2-(3-(((2-hydroxyethyl)amino)methyl)-5-methoxyphenyl)pyridin-4-yl)phenyl)-2-methoxypyridin-3-yl)methyl)amino)ethan-1-ol] | ≥ 10000 nM | 1.18 nM |
| COc1cc(CNC[C@H](C)O)cc(-c2nccc(-c3cccc(-c4ccc(CNC[C@H](C)O)c(OC)n4)c3Cl)c2Cl)c1 [Compound 157, (S)-1-(((6-(2-chloro-3-(3-chloro-2-(3-((((S)-2-hydroxypropyl)amino)methyl)-5-methoxyphenyl)pyridin-4-yl)phenyl)-2-methoxypyridin-3-yl)methyl)amino)propan-2-ol] | ≥ 10000 nM | 2.45 nM |

— patent US20240246964A1 (Arbutus Biopharma Corporation, priority 2021, published 2024)
